{"source": "patent US20140121107A1", "about": "“HERBICIDAL COMPOSITIONS FOR TOLERANT OR RESISTANT RICE CROPS” (Bayer Intellectual Property GmbH, priority 1998, published 2014)", "assay_type_in_all_cases": "in vivo", "key": {"Cyperus difformis [1]": {"test_system": "Cyperus difformis", "test": "Herbicidal effect in rice weeds (field trial, Table 5)", "settings": "application in the 3-leaf stage, scoring 36 days after application", "procedure": "(§1) Transgenic rice plants with a resistance to one or more herbicides (A) together with typical weed plants were grown in the open on 2×5 m plots under natural field conditions; alternatively, weed infestation occurred naturally when the rice plants were grown. Fields were set up for field rice or alternatively also for paddy rice.\n(§2) […] The damage to, and the development of, all aerial parts of the plants was recorded. Scoring was done on the basis of a percentage sale (100% action=all plants destroyed; 50% action=50% of the plants and green parts of the plants destroyed; 0% action=no recognizable effect=like control plot. The mean of the score values of in each case 4 plots was calculated."}, "Echinochloa crus galli [2]": {"test_system": "Echinochloa crus galli", "test": "Herbicidal effect in rice weeds (field trial, Table 9)", "settings": "application in the 5-6-leaf stage, scoring 36 days after application", "procedure": "as §1, §2"}, "Echinochloa crus-galli [3]": {"test_system": "Echinochloa crus-galli", "test": "Herbicidal effect in rice broad-leaved weeds (Table 2)", "settings": "application in the 3-4-leaf stage, scoring 2 weeks after application", "procedure": "as §1\n(§3) 2, 4, 6 and 8 weeks after the application, the herbicidal activity of the active substances or active substance mixtures was scored visually with reference to the treated plots in comparison to untreated control plots. The damage to, and the development of, all aerial parts of the plants was recorded. Scoring was done on the basis of a percentage sale (100% action=all plants destroyed; 50% action=50% of the plants and green parts of the plants destroyed; 0% action=no recognizable effect=like control plot. The mean of the score values of in each case 4 plots was calculated."}, "Ipomoea sp.": {"test_system": "Ipomoea sp.", "test": "Herbicidal effect in rice weeds (Table 3)", "settings": "application in the 4-leaf stage, scoring 2 weeks after application", "procedure": "as §1, §3"}, "Cyperus iria": {"test_system": "Cyperus iria", "test": "Herbicidal effect in rice weeds (field trial, Table 6)", "settings": "application in the 3-leaf stage, scoring 42 days after application", "procedure": "as §1, §3"}, "Aeschynomene rudis": {"test_system": "Aeschynomene rudis", "test": "Herbicidal effect in rice weeds (field trial, Table 8)", "settings": "application in the 3-leaf stage, scoring 28 days after application", "procedure": "as §1, §3"}, "Echinochloa crus galli [4]": {"test_system": "Echinochloa crus galli", "test": "Herbicidal effect in rice weeds (field trial, Table 4)", "settings": "application in the 4-leaf stage, scoring 42 days after application", "procedure": "as §1, §3"}, "Echinochloa crus galli [5]": {"test_system": "Echinochloa crus galli", "test": "Herbicidal effect in rice weeds (field trial, Table 7)", "settings": "application in the 3-leaf stage, scoring 42 days after application", "procedure": "as §1, §3"}, "Echinochloa crus-galli [6]": {"test_system": "Echinochloa crus-galli", "test": "Herbicidal effect in rice weeds (field trial, Table 11)", "settings": "application in the 4-leaf stage, scoring 26 days after application", "procedure": "as §1, §3"}, "Cyperus difformis [7]": {"test_system": "Cyperus difformis", "test": "Herbicidal effect in rice weeds (field trial, Table 10)", "settings": "15 g A.S./ha; application in the 7-leaf stage; scoring 36 days after application", "procedure": "as §1\nThe damage to, and the development of, all aerial parts of the plants was recorded."}}, "note": "Structures can show the parent of a compound that is named as a salt.", "data": [{"smiles": "Cc1nn(-c2cc(CC(Cl)C(=O)O)c(Cl)cc2F)c(=O)n1C(F)F", "note": "(racemic) [(B2.13), (RS)-2-chloro-3-[2-chloro-5-(4-difluoromethyl-4,5-dihydro-3-methyl-5-oxo-1H-1,2,4-triazol-1-yl)-4-fluorophenyl]propionic acid]", "values": [{"measurement": "Herbicidal action (%) against Cyperus difformis", "setting": "Cyperus difformis [1]; 50 g A.S./ha", "value": 28, "unit": "%"}]}, {"smiles": "CP(=O)(O)CCC(N)C(=O)O", "note": "(centres unmarked) [(A1.2), glufosinate-monoammonium salt]", "values": [{"measurement": "Herbicidal action (%) against Echinochloa crus galli", "setting": "Echinochloa crus galli [2]; 500 g A.S./ha", "value": 18, "unit": "%"}, {"measurement": "Herbicidal action (%) against Echinochloa crus-galli", "setting": "Echinochloa crus-galli [3]; 400 g A.S./ha", "value": 93, "unit": "%"}, {"measurement": "Herbicidal action (%) against Ipomoea sp.", "setting": "Ipomoea sp.; 400 g A.S./ha", "value": 93, "unit": "%"}, {"measurement": "Herbicidal action (%) against Cyperus iria", "setting": "Cyperus iria; 400 g A.S./ha", "value": 35, "unit": "%"}, {"measurement": "Herbicidal action (%) against Aeschynomene rudis", "setting": "Aeschynomene rudis; 250 g A.S./ha", "value": 65, "unit": "%"}, {"measurement": "Herbicidal action (%) against Aeschynomene rudis", "setting": "Aeschynomene rudis; 500 g A.S./ha", "value": 83, "unit": "%"}, {"measurement": "Herbicidal action (%) against Echinochloa crus galli", "setting": "Echinochloa crus galli [4]; 250 g A.S./ha", "value": 63, "unit": "%"}, {"measurement": "Herbicidal action (%) against Echinochloa crus galli", "setting": "Echinochloa crus galli [4]; 500 g A.S./ha", "value": 87, "unit": "%"}, {"measurement": "Herbicidal action (%) against Echinochloa crus galli", "setting": "Echinochloa crus galli [5]; 400 g A.S./ha", "value": 65, "unit": "%"}, {"measurement": "Herbicidal action (%) against Echinochloa crus-galli", "setting": "Echinochloa crus-galli [6]; 250 g A.S./ha", "value": 35, "unit": "%"}, {"measurement": "Herbicidal action (%) against Echinochloa crus-galli", "setting": "Echinochloa crus-galli [6]; 500 g A.S./ha", "value": 75, "unit": "%"}, {"measurement": "Herbicidal action (%) against Cyperus difformis", "setting": "Cyperus difformis [1]; 400 g A.S./ha", "value": 18, "unit": "%"}, {"measurement": "Herbicidal action (%) against Cyperus difformis", "setting": "Cyperus difformis [1]; 500 g A.S./ha", "value": 40, "unit": "%"}]}, {"smiles": "CCc1cnc(C2=NC(C)(C(C)C)C(=O)N2)c(C(=O)O)c1", "note": "(centres unmarked) [(A3.2), imazethapyr]", "values": [{"measurement": "Herbicidal action (%) against Echinochloa crus galli", "setting": "Echinochloa crus galli [2]; 75 g A.S./ha", "value": 67, "unit": "%"}]}, {"smiles": "CCSC(=O)N1CCCCCC1", "note": "[(B1.1), S-ethyl azepane-1-thiocarboxylate]", "values": [{"measurement": "Herbicidal action (%) against Echinochloa crus galli", "setting": "Echinochloa crus galli [2]; 4480 g A.S./ha", "value": 0, "unit": "%"}]}, {"smiles": "CCN(CC)C(=O)SCc1ccc(Cl)cc1", "note": "[(B1.2), S-4-chlorobenzyl diethylthiocarbamate]", "values": [{"measurement": "Herbicidal action (%) against Cyperus iria", "setting": "Cyperus iria; 1500 g A.S./ha", "value": 57, "unit": "%"}]}, {"smiles": "O=C(O)c1c(Cl)ccc2cc(Cl)cnc12", "note": "[(B1.3), 3,7-dichloroquinoline-8-carboxylic acid]", "values": [{"measurement": "Herbicidal action (%) against Echinochloa crus galli", "setting": "Echinochloa crus galli [5]; 560 g A.S./ha", "value": 25, "unit": "%"}]}, {"smiles": "CCC(=O)Nc1ccc(Cl)c(Cl)c1", "note": "[(B1.4), N-(3,4-dichlorophenyl)-propanamide]", "values": [{"measurement": "Herbicidal action (%) against Ipomoea sp.", "setting": "Ipomoea sp.; 3360 g A.S./ha", "value": 90, "unit": "%"}]}, {"smiles": "CCC(CC)Nc1c([N+](=O)[O-])cc(C)c(C)c1[N+](=O)[O-]", "note": "[(B1.5), N-(1-ethylpropyl)-2,6-dinitro-3,4-xylidine]", "values": [{"measurement": "Herbicidal action (%) against Cyperus iria", "setting": "Cyperus iria; 1000 g A.S./ha", "value": 33, "unit": "%"}]}, {"smiles": "CC1(C)CON(Cc2ccccc2Cl)C1=O", "note": "[(B1.12), 2-(2-chlorobenzyl)-4,4-dimethyl-1,2-oxazolidin-3-one]", "values": [{"measurement": "Herbicidal action (%) against Echinochloa crus galli", "setting": "Echinochloa crus galli [4]; 400 g A.S./ha", "value": 7, "unit": "%"}]}, {"smiles": "CC(C)Oc1cc(-n2nc(C(C)(C)C)oc2=O)c(Cl)cc1Cl", "note": "[(B1.21)]", "values": [{"measurement": "Herbicidal action (%) against Cyperus iria", "setting": "Cyperus iria; 250 g A.S./ha", "value": 37, "unit": "%"}]}, {"smiles": "O=C(O)COc1ccc(Cl)cc1Cl", "note": "[(B2.1), (2,4-dichlorophenoxy)acetic acid]", "values": [{"measurement": "Herbicidal action (%) against Cyperus iria", "setting": "Cyperus iria; 500 g A.S./ha", "value": 62, "unit": "%"}]}, {"smiles": "COC(=O)c1ccccc1CS(=O)(=O)NC(=O)Nc1nc(OC)cc(OC)n1", "note": "[(B2.3), methyl 2-[[[[[(4,6-dimethoxy-2-pyrimidinyl)amino]carbonyl]-amino]sulfonyl]methyl]benzoate]", "values": [{"measurement": "Herbicidal action (%) against Echinochloa crus-galli", "setting": "Echinochloa crus-galli [3]; 45 g A.S./ha", "value": 0, "unit": "%"}, {"measurement": "Herbicidal action (%) against Cyperus difformis", "setting": "Cyperus difformis [1]; 35 g A.S./ha", "value": 55, "unit": "%"}, {"measurement": "Herbicidal action (%) against Cyperus difformis", "setting": "Cyperus difformis [1]; 70 g A.S./ha", "value": 87, "unit": "%"}]}, {"smiles": "CCOc1ccccc1OS(=O)(=O)NC(=O)Nc1nc(OC)cc(OC)n1", "note": "[(B2.4), 1-(4,6-dimethoxypyrimidin-2-yl)-3-(2-ethoxyphenoxysutfonyl)urea]", "values": [{"measurement": "Herbicidal action (%) against Cyperus difformis", "setting": "Cyperus difformis [7]", "value": 40, "unit": "%"}]}, {"smiles": "COc1nc(C)nc(NC(=O)NS(=O)(=O)c2ccccc2C(=O)O)n1", "note": "[(B2.5), 2-[[[[(4-methoxy-6-methyl-1,3,5-triazin-2-yl)amino]carbonyl]amino]sulfonyl]benzoic acid]", "values": [{"measurement": "Herbicidal action (%) against Cyperus iria", "setting": "Cyperus iria; 1 g A.S./ha", "value": 35, "unit": "%"}]}, {"smiles": "COc1cc(OC)nc(NC(=O)NS(=O)(=O)c2c(C(=O)O)cnn2C)n1", "note": "[(B2.8), 5-(4,6-dimethoxypyrimidin-2-ylcarbamoylsulfamoyl)-1-methylpyrazole-4-carboxylic acid]", "values": [{"measurement": "Herbicidal action (%) against Cyperus difformis", "setting": "Cyperus difformis [1]; 15 g A.S./ha", "value": 65, "unit": "%"}]}, {"smiles": "CCS(=O)(=O)Oc1ccc2c(c1)C(C)(C)CO2", "note": "[(B2.15), 2,3-dihydro-3,3-dimethylbenzofuran-5-yl ethanesulfonate]", "values": [{"measurement": "Herbicidal action (%) against Cyperus difformis", "setting": "Cyperus difformis [1]; 200 g A.S./ha", "value": 35, "unit": "%"}]}, {"smiles": "CCCC(=NOCC(C)Oc1ccc(Cl)cc1)C1=C(O)CC(C2CCCSC2)CC1=O", "note": "(centres unmarked) [(B4.4)]", "values": [{"measurement": "Herbicidal action (%) against Echinochloa crus-galli", "setting": "Echinochloa crus-galli [6]; 37.5 g A.S./ha", "value": 50, "unit": "%"}, {"measurement": "Herbicidal action (%) against Echinochloa crus-galli", "setting": "Echinochloa crus-galli [6]; 75 g A.S./ha", "value": 83, "unit": "%"}]}]}
